# Measured values: patent publication US20170071991A1, “Oncolytic Virus and Aurora Kinase Inhibitor for the Treatment of Cancer” (priority 2014, published 2017)
# Entries after “also recorded” stand apart in the source; their conditions may differ.
# How the values were obtained:
# [1] = pro-drug; cited from earlier work
# [2] = human plasma; cited from earlier work
# [3] = test system: human acute myelogenous leukemia (HL60) nude mice xenografts; conditions: cited from earlier work
# [4] = test system: human colon cancer (HCT116) nude rat xenograft; conditions: HCT116 nude rat xenograft model; cited from earlier work
# S462TY flank xenografts = assay: S462TY nude mouse flank xenograft, single HSV1716 dose plus MLN8237 20 mg/kg twice daily; assay type: in vivo, nude mice
# Method: Single intratumoral (ITu) injections of 1.0×10^7 pfu HSV1716 or PBS or single intravenous (IV) injections of 9.0×10^7 pfu HSV1716 or PBS were administered on day 7 and tumor growth and survival were monitored.
# S462TY xenografts = assay: S462TY nude mouse xenograft, multiple cycles of lower dose MLN8237 plus HSV1716; assay type: in vivo, nude mice; conditions: multiple weekly ITu HSV1716 1×10^7 pfu and/or MLN8237 10 mg/kg once daily 5-day cycles
# From the text: The schema used for each of the 4 groups is shown in FIG. 8 and tumor growth and survival were monitored throughout the experiment.
# [5] = test system: SK-N-AS flank xenografts (neuroblastoma); assay: SK-N-AS nude mouse flank xenograft model; assay type: in vivo, nude mice
# From the text: SK-N-AS cells were derived from a bone marrow metastasis […] of a child with poorly differentiated embryonal neuroblastoma and the cell line readily formed flank xenografts in nude mice. […] The schema used for each of the 4 groups is shown in FIG. 13 and tumor growth and survival were monitored throughout the experiment.
# [6] = test system: HSV1716 titre in S462TY xenografts; assay: HSV1716 titration of S462TY xenograft tumours after ITu injection; assay type: in vivo, mice
# From the text: MLN8237-treated or control, untreated mice with S462TY xenografts received ITu HSV1716 and tumours, removed at 2 and 48 hrs after virus administration, were titrated (FIG. 18).
# [7] = test system: HSV1716 uptake by S462TY cells; assay: Quantitative PCR for HSV1716 genomes in S462TY cells in vitro; assay type: cell-based; conditions: 30 min post infection, acid wash
# Method: S462TY cells were infected with HSV1716 and an acid wash after 30 mins was used to remove residual free virus which had not penetrated intracellularly.
# [8] = test system: multiple tumor cell lines; conditions: values as low as; read-out: GI50, growth of multiple tumor cell lines; cited from earlier work
# [9] = test system: receptors and ion channels; conditions: cited from earlier work
# [10] = cited from earlier work
# [11] = test system: senescence-associated beta-galactosidase in S462TY xenografts; assay: Senescence detection with X-gal (SA-β-gal) in S462TY xenografts
# [12] = S462TY flank xenografts, best response for at least 21 days, last response day 53, route as in label
# [13] = S462TY flank xenografts, day 53, route as in label
structure (smiles),measurement,setting,value
CCN(CCCOc1ccc2c(Nc3cc(CC(=O)Nc4cccc(F)c4)n[nH]3)ncnc2c1)CCOP(=O)(O)O [AZD1152],solubility,[1],highly soluble
same,cleavage of pro-drug to active drug substance AZD1152 hydroxy-QPA,[2],cleaved completely
Cc1cc(Nc2cc(N3CCN(C)CC3)nc(Sc3ccc(NC(=O)C4CC4)cc3)n2)n[nH]1 [MK0457],reduction in tumor volume when compared with controls,[3],98%
same,"tumor regression, rats treated",[4],four of the seven rats
COc1cc(Nc2ncc3c(n2)-c2ccc(Cl)cc2C(c2c(F)cccc2OC)=NC3)ccc1C(=O)O [MLN8237],tumor growth of S462TY xenografts (FIG. 5a),"S462TY flank xenografts; HSV1716 single ITu 1.0×10^7 pfu day 7 and/or MLN8237 20 mg/kg oral twice daily, 42 days",initially effective at preventing growth of the xenografts
same,survival compared to vehicle/PBS-treated controls (FIG. 6),S462TY flank xenografts; HSV1716 single ITu 1×10^7 pfu day 7 and/or MLN8237 20 mg/kg twice daily,improved survival
same,"PR-->PD, evaluable mice",S462TY flank xenografts; [12],0
same,"SD-->PD, evaluable mice",S462TY flank xenografts; [12],6
same,"PD (Progressive Disease), evaluable mice","S462TY flank xenografts; S462TY flank xenografts, day 53 (11 days after last treatment), MLN8237 20 mg/kg oral twice daily 5 d/week 42 days, HSV1716 single ITu 1.0×10^7 or IV 9.0×10^7 pfu day 7, route as in label",4
same,"CR (Complete Response), evaluable mice",S462TY flank xenografts; [13],0
same,"PR (Partial Response), evaluable mice",S462TY flank xenografts; [13],0
same,day by which most of the mice had been sacrificed,"S462TY flank xenografts; single agents: IV HSV1716, MLN8237 twice daily doses",≤ 60 days
same,"tumor growth of S462TY xenografts (FIG. 9, 10)",S462TY xenografts,reduced the growth
same,"tumor growth, comparison between the four groups on day 21 (FIG. 16)",[5]; day 21,highly significant reduction in tumor growth
same,mice still alive on day 25,"[5]; day 25, single agents",approximately 50%
same,tumor growth of SK-N-AS xenografts (FIG. 14),[5]; five weekly ITu HSV1716 1×10^7 pfu and/or MLN8237 10 mg/kg once daily 5-day cycles,reduced the growth
same,free input virus detected in MLN8237-treated tumours,[6]; 2 hrs after ITu HSV1716,less of the free input virus detected
same,virus titre in MLN8237-treated compared to untreated control tumors,[6]; 48 hrs after ITu HSV1716,no apparent increase in virus titre
same,"uptake/infection rate of HSV1716 (intracellular genomes, Q-PCR normalised to GAPDH)",[7],significantly increases intracellular HSV1716 genomes; also recorded: significantly higher uptake/infection rate
same,GI50,[8],≥ 16 nM
same,cross-reactivity in broad screen of receptors and ion channels,[9],no significant cross-reactivity
same,oral availability and absorption,[10],orally available and rapidly absorbed
same,sections staining after incubation with X-gal (MLN8237-induced senescence),[11],1/18
